# Patent US10154992B2, “Compounds and methods for treating HIV infection” (THE REGENTS OF THE UNIVERSITY OF CALIFORNIA, priority 2016, dated 2018)
# System: not listed separately
# Test: MTT cell viability run in parallel with the Tat-hybrid assay
# Format: cell-based
# Details: human, Tat-hybrid reporter cell lines (HeLa); Table 5; read-out: Tat hybrid TC50
# Procedure: (§1) Cells were counted and plated into white 384-well or 96-well cell-culture treated assay plates and compounds were added. After 48 hours, the cells were prepared for luminescence assays that were performed on a plate reader (Tecan Evolution or MD Analyst). The cytotoxicity of each compound was determined in parallel via MTT-based cell viability assays.
# as §1, with “Tat hybrid reporter assay. […] Previously characterized thienopyridines and diaminoacridine were used as controls. Cells” for “Cells”, “384-well” for “384-well or 96-well”, “lumincescence” for “luminescence”, “assays. […]” for “assays.”
row,Compound,CC50 at 48 h
1,NC(=O)c1sc2cncc(-c3cccc4cccnc34)c2c1N,> 40 µM
2,COc1ccc(C(=O)N2CCN(c3cncc4sc(C(N)=O)c(N)c34)CC2)cc1F,< 40 µM
3,NC(=O)c1sc2cncc(N3CCCC(c4nc5ccccc5o4)C3)c2c1N (stereo not drawn),< 40 µM
4,CN1CCN(c2cncc3sc(C(N)=O)c(N)c23)CC1,< 40 µM
5,CC(=O)N1CCN(c2cncc3sc(C(N)=O)cc23)CC1,> 40 µM
6,COc1cc(C(=O)N2CCN(c3cncc4sc(C(N)=O)c(N)c34)CC2)ccc1C,< 40 µM
7,NC(=O)c1cccc(-c2cncc3sc(C(N)=O)c(N)c23)c1,< 40 µM
8,NC(=O)c1sc2cncc(-c3cncc4ccccc34)c2c1N,> 40 µM
9,CN(C=O)c1ccc(C(=O)N2CCN(c3cncc4sc(C(N)=O)c(N)c34)CC2)cc1,< 40 µM
10,NC(=O)c1sc2cncc(N3CCN(c4ccccc4O)CC3)c2c1N,< 40 µM
11,NC(=O)c1sc2cncc(-c3cccc(-c4ccccc4)c3)c2c1N,< 40 µM
12,CN(Cc1cccs1)c1cncc2sc(C(N)=O)c(N)c12,< 40 µM
13,Cc1ccc(C(=O)N2CCN(c3cncc4sc(C(N)=O)c(N)c34)CC2)cn1,< 40 µM
14,Cn1cc(CC(=O)N2CCN(c3cncc4sc(C(N)=O)c(N)c34)CC2)c2ccccc21,< 40 µM
15,Cc1noc(C)c1C(=O)N1CCN(c2cncc3sc(C(N)=O)c(N)c23)CC1,< 40 µM
16,NC(=O)c1sc2cncc(N3CCOCC3)c2c1N,< 40 µM
17,Cc1cccc(N2CCN(c3cncc4sc(C(N)=O)c(N)c34)CC2)n1,< 40 µM
18,NC(=O)c1sc2cncc(-c3ccncc3)c2c1N,> 40 µM
19,CS(=O)(=O)c1ccc(C(=O)N2CCN(c3cncc4sc(C(N)=O)c(N)c34)CC2)cc1,< 40 µM
20,CC(C)c1n[nH]c2c1CN(c1cncc3sc(C(N)=O)c(N)c13)CC2,< 40 µM
21,NC(=O)c1sc2cncc(Cl)c2c1N,< 40 µM

# Same assay, conditions: human, Tat-hybrid reporter cell lines (HeLa); Table 6; second 'EC50' entry of the cell, values D/E
row,Compound,EC50 at 48 h
1,Cc1cc(C(F)(F)F)nc2sc(C(N)=O)c(N)c12,> 40 µM
2,COC(=O)c1sc2nc(C)cc(C)c2c1N,> 40 µM
3,COC(=O)c1sc2nccc(N(C)C)c2c1N,< 40 µM

# System: Tat-hybrid reporter cell lines (HeLa)
# Test: as above
# Format: cell-based
# Details: Table 6; at 50,000 nM
# Procedure: as §1
# as §1, with “Tat hybrid reporter assay. […] Previously characterized thienopyridines and diaminoacridine were used as controls. Cells” for “Cells”, “384-well” for “384-well or 96-well”, “lumincescence” for “luminescence”, “assays. […]” for “assays.”
row,Compound,"Tat hybrid cell viability at 50,000 nM"
1,N#Cc1c(N)nc2sc(C(=O)Nc3ccccc3)c(N)c2c1-c1cccs1,X (X = >60%)
2,COc1ccc(-c2c(C(=O)Nc3ccccc3)c(C)nc3sc(C(N)=O)c(N)c23)cc1,X (X = >60%)
3,NC(=O)c1sc2nc(C34CC5CC(CC(C5)C3)C4)ccc2c1N,X (X = >60%)
4,N#Cc1c(N)nc2sc(C(N)=O)c(N)c2c1-c1ccc(Br)cc1,X (X = >60%)
5,NC(=O)c1sc2nc3c(cc2c1N)CCCC3,X (X = >60%)
6,Cc1cc(C(F)(F)F)nc2sc(C(N)=O)c(N)c12,Y (Y = 30-60%)
7,CC(=O)C1=C(C)Nc2sc(C(N)=O)c(N)c2C1c1cccnc1 (stereo not drawn),X (X = >60%)
8,COCc1cc(C)nc2sc(C(=O)c3ccc(Cl)cc3)c(N)c12,X (X = >60%)
9,COc1ccc(C(=O)c2sc3nc(C)c(C)c(C)c3c2N)cc1OC,X (X = >60%)
10,Cc1nc2sc(C(=O)c3ccc(Cl)cc3)c(N)c2c(C)c1C,X (X = >60%)
11,COc1ccc(-c2cc(-c3ccccc3)nc3sc(C(N)=O)c(N)c23)cc1 [drawing 268],Y (Y = 30-60%)
12,CN(C)c1ccnc2sc(C(=O)NCc3ccccc3)c(N)c12,Y (Y = 30-60%)
13,CC(=O)C1=C(C)Nc2sc(C(N)=O)c(N)c2C1c1ccccc1 (stereo not drawn),Y (Y = 30-60%)
14,NC(=O)c1sc2nc(-c3ccccc3)cc(C(F)(F)F)c2c1N,X (X = >60%)
15,CCc1nc2sc(C(N)=O)c(N)c2cc1C,X (X = >60%)
16,N#Cc1c(N)nc2sc(C(=O)Nc3ccc(Br)cc3)c(N)c2c1-c1cccs1,X (X = >60%)
17,COC(=O)c1sc2nc(C)cc(C)c2c1N,X (X = >60%)
18,Cc1ccc(-c2cc(C(F)F)nc3sc(C(N)=O)c(N)c23)cc1,X (X = >60%)
19,COCc1cc(C)nc2sc(C(=O)N3CCOCC3)c(N)c12,Y (Y = 30-60%)
20,NC(=O)c1sc2nc(-c3ccc(F)cc3)cc(-c3ccccc3)c2c1N,X (X = >60%)
21,COC(=O)c1sc2nccc(N(C)C)c2c1N,X (X = >60%)
22,COc1cc2cc3c(N)c(C(N)=O)sc3nc2cc1OC,X (X = >60%)
23,Cc1nc2sc(C(=O)c3ccccc3)c(N)c2c(C)c1C,X (X = >60%)

row,Compound,"Tat hybrid cell viability at 50,000 nM"
1,CN1CCc2nc3sc(C(N)=O)c(N)c3cc2C1,X (X = >60%)
2,COc1ccc(NC(=O)c2sc3nc(N)c(C#N)c(-c4cccs4)c3c2N)cc1,X (X = >60%)
3,NC(=O)c1sc2nc3c(cc2c1N)CCCCC3,X (X = >60%)
4,COCc1cc(C)c2c(N)c(C(N)=O)sc2n1,Y (Y = 30-60%)
5,COCc1cc(C)nc2sc(C(=O)Nc3ccc(NC(C)=O)cc3)c(N)c12,X (X = >60%)
6,COc1ccc(-c2cc(-c3ccccc3)nc3sc(C(N)=O)c(N)c23)cc1 [drawing 256],X (X = >60%)
7,NC(=O)c1sc2nc(-c3ccccc3)ccc2c1N,X (X = >60%)
8,NC(=O)c1sc2nc(-c3ccc4c(c3)OCCO4)cc(C(F)(F)F)c2c1N,X (X = >60%)
9,NC(=O)c1sc2nc(-c3ccccc3)cc(-c3ccccc3)c2c1N,"Tat hybrid % inhibition at 5,000 nM: Z Tat hybrid cell viability at 50,000 nM: Z U1% inhibition at 10,000 nm: Z (Z = <30%)"
10,NC(=O)c1sc2nc(C(F)F)cc(-c3ccco3)c2c1N,Y (Y = 30-60%)
11,NC(=O)c1sc2nc(C(F)F)cc(-c3ccccc3)c2c1N,X (X = >60%)
12,COCc1cc(C)nc2sc(C(=O)OC)c(N)c12,X (X = >60%)
13,N#Cc1cc2c(N)c(C(N)=O)sc2nc1N,Z (Z = <30%)
14,Cc1ccc(-c2cc(-c3ccc(Cl)cc3)c3c(N)c(C(N)=O)sc3n2)cc1,"Tat hybrid % inhibition at 5,000 nM: Z Tat hybrid cell viability at 50,000 nM: Z U1% inhibition at 10,000 nm: Z (Z = <30%)"
15,Cc1cc(C)c2nc3sc(C(N)=O)c(N)c3cc2c1,X (X = >60%)
16,COCc1cc(C)nc2sc(C(=O)Nc3cc(C)ccc3F)c(N)c12,X (X = >60%)
17,NC(=O)c1sc2nc(-c3ccc(Cl)cc3)cc(-c3ccc(Cl)cc3)c2c1N,X (X = >60%)
18,CCOc1ccc2nc3sc(C(N)=O)c(N)c3cc2c1,X (X = >60%)
19,Cc1cc(C)c2c(N)c(C(=O)NCC(=O)O)sc2n1,X (X = >60%)
20,NC(=O)c1sc2nc3c(c(-c4cccnc4)c2c1N)CCC3,Z (Z = <30%)
21,Cc1ccc2c(N)c(C(N)=O)sc2n1 [drawing 227],X (X = >60%)
22,COCc1cc(C)nc2sc(C(=O)Nc3ccc(C(C)=O)cc3)c(N)c12,X (X = >60%)
23,COc1ccc2cc3c(N)c(C(N)=O)sc3nc2c1,Y (Y = 30-60%)

row,Compound,"Tat hybrid cell viability at 50,000 nM"
1,NC(=O)c1sc2[nH]c(=O)c(C(=O)O)cc2c1N,X (X = >60%)
2,NC(=O)c1sc2nc3c(cc2c1N)CCC3,X (X = >60%)
3,N#Cc1c(N)nc2sc(C(=O)Nc3ccc(Cl)cc3)c(N)c2c1-c1cccs1,X (X = >60%)
4,Cc1ccc2c(N)c(C(N)=O)sc2n1 [drawing 277],X (X = >60%)
5,NC(=O)c1sc2nc(C3CC3)cc(-c3ccccc3)c2c1N,X (X = >60%)
6,NC(=O)c1sc2nc3c(cc2c1N)C(=O)CCC3,X (X = >60%)
7,Cc1cc(C)c2cc3c(N)c(C(N)=O)sc3nc2c1,Z (Z = <30%)
8,COC(=O)c1sc2nc(C)c(C)c(C)c2c1N,Y (Y = 30-60%)
9,CCN(CC)C(=O)c1sc2nc(C)cc(C)c2c1N,Y (Y = 30-60%)
10,COc1ccc(-c2c(C#N)c(N)nc3sc(C(N)=O)c(N)c23)cc1OC,Y (Y = 30-60%)
11,Cc1cc(NC(=O)c2sc3nc(C)c(C)c(C)c3c2N)no1,X (X = >60%)
12,COc1ccc(-c2cc(-c3ccc(Cl)cc3)c3c(N)c(C(N)=O)sc3n2)cc1,X (X = >60%)
13,COc1ccc(-c2c3c(nc4sc(C(N)=O)c(N)c24)CCCC3)cc1,X (X = >60%)
14,CCc1ccc2nc3sc(C(N)=O)c(N)c3cc2c1,X (X = >60%)
15,NC(=O)c1sc2nc(C3CC3)cc(-c3ccc(Cl)cc3)c2c1N,Y (Y = 30-60%)
16,Cc1ccc2nc3sc(C(N)=O)c(N)c3cc2c1,X (X = >60%)
17,COc1ccc2nc3sc(C(N)=O)c(N)c3cc2c1,X (X = >60%)
18,Cc1cc2cc3c(N)c(C(N)=O)sc3nc2cc1C,X (X = >60%)
19,NNC(=O)c1sc2ncccc2c1N,X (X = >60%)
20,CCc1nnc(NC(=O)c2sc3nc(C)cc(COC)c3c2N)s1,X (X = >60%)
21,C=CCN(CC=C)C(=O)c1sc2nc(C)c(Cl)c(C)c2c1N,X (X = >60%)
22,NC(=O)c1sc2nc(-c3cccs3)cc(C(F)(F)F)c2c1N,Y (Y = 30-60%)
23,Cc1ccc2cc3c(N)c(C(N)=O)sc3nc2c1C,X (X = >60%)
